Test results as given in patent US9180217B2, “Sterilization system and device” (priority 2004, dated 2015).

What was measured:
[1] = test system: bacterial cocktail containing B. subtilis, S. marcesens, and S. epidermides; experiment: Sterilization of medical materials (tubing, needle); type: cell-based; conditions: 15 min Sterilization Cycle
Description: In this Example, the sterilization of medically relevant materials, such as needles and plastic tubing, is tested. Teflon (⅛′ ID), polyethylene (1.77 mm ID), vinyl (0.5 mm ID) tubing and a 30 gauge disposable needle are dipped in a bacterial cocktail containing B. subtilis, S. marcesens, and S. epidermides at about 10^8 total CFU/ml The samples are placed in the sterilization chamber and sealed. In each case, the lumen (the inner open space or cavity within the tubing) of the tubing or the needle contained at least some visually confirmed inoculum. […] The controls for each material reached at least 10^6 total CFU/ml in 24 hrs as determined by ABS595 standardization curves.

Serratia marcesens = experiment: Pressure vessel NO sterilization of dipped stainless steel strips; type: cell-based, Serratia marcesens (strain 21140); conditions: Five Minute Sterilization Cycle, NO gas at atmospheric pressure
Description: (§1) A glass pressure vessel is connected to a scrubbed NO gas tank source. The pressure vessel is purged five times with Argon gas to eliminate atmospheric oxygen (preventing formation of NO2•) and an additional three purges of NO are used to ensure a pure NO atmosphere and consistent results of bactericidal activity. To test the sterilization method: Bacillus subtillis var niger 9372 is used (after obtaining >80% endospore formation; a standard for ethylene oxide and autoclave test sterilization), as well as organisms commonly found on the epidermis: Staphylococcus aureus (strain 21769) and Staphylococcus epidermides (strain 21977), and the enteric organisms: Klebsiella pneumoniae (strain 21991) and Serratia marcesens (strain 21140). This particular Serratia strain has been found in previous studies to be one of the most resistant bacteria to the bactericidal effects of NO in culture. See, Raulli R et al., Recent Res Devel Microbiol 6: 177-183, 2002, the entire contents of which is incorporated by reference herein.
(§2) The organisms are cultured overnight in brain heart infusion BHI. […]
(§3) The sealed vessel is carefully opened in a laminar flow hood after all the NO had been purged with Argon. […] The samples are observed (digitally photographed) 24 hrs later, placed back in the waterbath and are measured for absorbance 72 hrs later. […]

[2] = test system: bacillus stearothemophilus spores; experiment: Spore studies in NO and NO2 (BI disks in TYVEK pouches, glass vessel); type: cell-based; conditions: 5% in Air with Humidity Chip; Exp Time 10 min
Description: The experiments are conducted in glass vessels in which gases can be metered in exact amounts. The tests were conducted using biological indicators made of stainless steel disks inoculated with 10^6 bacillus stearothemophilus spores. The BI disks are heat-sealed in individual TYVEK sterilization pouches and placed in a glass vessel. The vessel is filled with various mixtures of gases following specific protocols for the order and timing of gas introduction.
In one protocol, the glass vessel is evacuated to 3″ Hg absolute. Either NO or NO2, as the sterilant gas, is added in an amount that corresponds to a 5% concentration (by volume) when the vessel is completely filled with sterilant gas and diluent gas. After 5 minutes, either air or nitrogen was added to the vessel until atmospheric pressure is reached. The BI is exposed to the air or nitrogen for 10 minutes. Thereafter, the BIs, in their pouches, are removed from the vessel and taken to a microbiological hood. The biological indicators are removed from the pouches and placed in tubes with sterile tryptic soy broth, incubated at from about 55 to about 60° C., and monitored for growth.

[3] = test system: Staphylococcus epidermides; experiment: Pressure vessel NO sterilization of dipped stainless steel strips; type: cell-based, Staphylococcus epidermides (strain 21977); conditions: Five Minute Sterilization Cycle, NO gas at atmospheric pressure
Description: as §1, §2, §3

[4] = test system: spores (Biological Indicator manufactured by Raven); experiment: Humidity effects on spores (Raven Biological Indicator in Tyvek sachets, 300 ml glass vessels); type: cell-based; conditions: 5% nitrogen oxide, Diluent Air
Description: This Example illustrates the effects of humidity on the sterilization of spores using both NO and NO2/N2O4 as sterilizing gases. Tests are conducted in 300 ml glass vessels.
The vessels are allowed to stand for 30 minutes, Two Tyvek sachets, each containing a Biological Indicator manufactured by Raven (product number 3367771 3-6100ST) are placed in each vessel. The vessels are purged as follows: The vessel is evacuated to 8″Hg absolute. The Vessel is re-filled with air to atmospheric pressure. Evacuation/filling is repeated two more times. The vessel is evacuated to 8″Hg absolute. Sterilizing gases are introduced into the vessel. Compressed air (9% Relative Humidity) is added until the vessel reaches atmospheric pressure. The sachets are allowed to remain in the sterilizing environments for either five or ten 10 minutes before being removed and the BI is cultured in 4 milliliters of Tryptic Soy Broth for 14 days at 55-60° C.

[5] = test system: sporulated B. subtilis var. niger; experiment: Sterilization of contaminated stainless steel strips with varying quantities of delivered NO; type: cell-based; conditions: 5%, 2.5% and 1% NO, five minutes, culture in LB 48 hours then plating
Description: A blood storage container (Nexell, Irvine, Calif.; Lifecell PL732 plastic tissue culture flask) is used as the sterilization chamber. Strips of stainless steel are dipped in 10^6 CFU/ml sporulated B. subtilis var. niger (as determined by ABS595 standardization curves). The strips are allowed to air dry, placed in the sterilization chamber, and then the sterilization chamber is heat sealed. The sterilization chamber is evacuated using a syringe and controlling air flow with the sterilization chamber valves. A known quantity of air is added to the vessel using a graduated syringe.
An NO-generating donor compound is placed in a 7 cc gas generation chamber. The gas generation chamber is attached to the storage container through luer lock connectors. The liquid activator, 3.0N HCl is added to the gas generation chamber and the generated gas is allowed to flow into the sterilization chamber. After a brief generation period, the gas is sealed in the sterilization chamber using a compression valve.
Varying quantities of NO gas, namely 10%, 5%, 2.5% and 1% NO, are tested for their efficacy in the sterilization chamber. The quantity (%) of NO gas generated and added to the sterilization chamber is calculated from the number of moles of NO required to be generated to result in the desired percentage of NO. […]

Klebsiella pneumoniae = experiment: Pressure vessel NO sterilization of dipped stainless steel strips; type: cell-based, Klebsiella pneumoniae (strain 21991); conditions: Five Minute Sterilization Cycle, NO gas at atmospheric pressure
Description: as §1, §2, §3

`[N]=O` [NO, nitric oxide] was tested, and the “trials Killed” value ([1]; Disposable Needle 30 gauge) was 2/2 Killed, the “trials Killed” value ([1]; Polyethylene Tubing 1.77 mm ID) was 2/2 Killed and the “trials Killed” value ([1]; Teflon Tubing 1/8′ ID) was 2/2 Killed. The “trials Killed” value ([1]; Vinyl Tubing 0.5 mm ID) was 2/2 Killed, the “trials showing no bacterial growth (Killed)” value (Serratia marcesens) was 3/3 Killed and the “spore condition (Dead/Live)” value [2] was “Dead”. For the same compound, the “trials showing no bacterial growth (Killed)” value [3] was 3/3 Killed, the “Spore Condition in 14 Days” value ([4]; Exposure 5 Minutes, Dry) was “Alive” and the “Spore Condition in 14 Days” value ([4]; Exposure 5 Minutes, Humid) was “Dead”. The “Spore Condition in 14 Days” value ([4]; Exposure 10 Minutes, Dry) was “Alive”, the “Spore Condition in 14 Days” value ([4]; Exposure 10 Minutes, Humid) was “Dead” and the “killing 10^6 CFU/ml sporulated B. subtilis var. niger” value [5] was “effective at killing”. For the same compound, the “trials showing no bacterial growth (Killed)” value (Klebsiella pneumoniae) was 3/3 Killed.
